According to US9238797B2, “Method for production of pluripotent stem cell” (TAKARA BIO INC., priority 2008, dated 2016):

Assays:
[1] = test system: human adult skin fibroblast; assay: iPS cell colony induction, cell cycle arresting agent treatment (Example 3); assay type: cell-based; conditions: 2 days, 22nd day of culture
Method: According to the same manner as that of Example 1-(2), gene transfer was carried out (day 0 of culturing), provided that a plate was washed with PBS containing 1.5% human serum albumin, and centrifugation after cell seeding was not carried out. In addition, gene transfer was carried out in a combination of a retrovirus vector DON5-am-OCT4-IR-SOX2, DON5-am-LIN28-IR-NANOG, or DON5-am-KLF4.
On the seventh day of culture, according to the same manner as that of Example 1-(4), the gene-introduced cell was seeded on a feeder cell, and culturing was continued.
In addition, the agent was not added to a control. After culturing for 2 days, the medium was exchanged with a medium for ES cells, and culturing was continued until the 22nd day of culture.

[2] = test system: human adult skin fibroblast; assay: iPS cell colony induction, DHCP and GM (Example 29); assay type: cell-based; conditions: 10 μM, 2 days; 26th day of culture; N=2
Method: In induction culturing of a pluripotent stem cell, substance treatment with a compound DHCP produced by heating a uronic acid compound derived from an animal and a plant (International Publication No. 98/13328 pamphlet), and GM in which glutathione is added to DHCP (International Publication No. 98/39291 pamphlet) was carried out, and influence on an induction efficiency was studied.
According to the same manner as that of Example 4-(2), gene transfer was carried out (day 0 of culturing), provided that each 1 mL of the virus solution was added to each well, by diluting 10-fold a solution obtained by three kinds of vectors at an equal amount, with 10F-DMEM.
(§1) On the sixth day of culture, according to the same manner as that of Example 5-(4), the gene-introduced cell was seeded on a feeder cell, and culturing was continued.
(§2) In addition, in a control, the substance was not added. After culturing for 2 days, the medium was exchanged with a medium for ES cells, and culturing was continued to the 28th day of culture.
(§3) In addition, the number in the Table indicates an average value of N=2.

[3] = test system: human adult skin fibroblast; assay: iPS cell colony induction, cell cycle arresting agent-3, NU6140 (Example 28); assay type: cell-based; conditions: 2 days, 28th day of culture, N=2
Method: In induction culturing of a pluripotent stem cell, substance treatment with […] (manufactured by ALEXIS BIOCHEMICALS) which is one of Cell cycle arresting agents was carried out, and influence on an induction efficiency was studied.
According to the same manner as that of Example 1-(1), immobilization of Retronectin on a culture plate was carried out, provided that a non-treatment 12-well culture plate (manufactured by Becton, Dickinson and Company) was used, and each 1 mL of a Retronectin solution was added to each well.
According to the same manner as that of Example 4-(2), gene transfer was carried out (day 0 of culturing), provided that each 1 mL of the virus solution was added to each well, by diluting 100-fold a solution obtained by three kinds of vectors at an equal amount, with 10F-DMEM.
as §1, §2, §3

[4] = test system: human adult skin fibroblast; assay: iPS cell colony induction, methylation inhibitor treatment (Example 1); conditions: 5-aza-2′-deoxycytidine 1 μM for 2 days in medium for ES cells, 28th day of culture
Method: Each 700 μL of the virus solution prepared in Preparation Example 2 was added to each well of the Retronectin-immobilized culture plate prepared in (1) in a combination of Table 3, respectively, and this was centrifuged at 32° C. and 2,000×g for 2 hours.
Thereafter, the supernatant was removed from each well, washed with PBS once, and each 2 mL of human adult skin fibroblast (manufactured by Lonza) suspended in 10F-DMEM to 5×10^4 cells/mL was seeded on each well. After centrifugation at 32° C. and 500×g for 10 minutes, culturing was initiated in a CO2 incubator at 37° C. (0 day of culture).
Gene transfer for the second time was carried out on the first day of culture. Each 700 μL of virus solutions prepared by Preparation Example 2 were mixed in a combination of Table 3, and polybrene (hexadimethrine.bromide; manufactured by Aldrich) was added to a final concentration of 8 μg/mL to prepare a retrovirus vector mixed solution. The supernatant was removed from a culture plate which had been cultured in (2), and this retrovirus vector mixed solution was added. After culturing in a CO2 incubator at 37° C. for 4 hours, 2 mL of 10F-DMEM was added. After further culturing for 2 days, the supernatant was removed, 2 mL of 10F-DMEM was added, and culturing was continued.
The gene-introduced cell on the seventh day of culture made in (3) was recovered, and suspended in 10F-DMEM to 5×10^4 cells/mL. 10 mL of this suspension was seeded on the feeder cell, and culturing was continued.
On the eighth day of culture (after culturing for 1 day from seeding on the feeder cell), the supernatant was removed, and 10 mL of DMEM not containing serum (0F-DMEM: obtained by removing bovine fetal serum from 10F-DMEM) was added under Protein starvation treatment conditions. […]
The number of a pluripotent stem cell (iPS cell) under each condition of protein starvation of treatment or methylation inhibitor treatment under each of conditions A, B and C was counted on the 28th day of culture.

[5] = test system: human adult skin fibroblast; assay: iPS cell colony induction, cell cycle arresting agent-2, Purvalanol A with or without Y27632 (Example 27); assay type: cell-based; conditions: 26th day of culture, N=2
Method: Regarding Purvalanol A being a Cell cycle arresting agent, for which the effect of promoting induction of a pluripotent stem cell was confirmed in Example 3, extension of the substance treatment term thereof and a combination use thereof with Y-27632 [(R) (+)-trans-4-(1-aminoethyl)-N-(4-pyridyl)cyclohexanecarboxyamide dihydrochloride] which is one of substances suppressing cell death were studied.
According to the same manner as that of Example 3-(2), gene transfer was carried out (day 0 of culturing), provided that the virus solution was added to each well by each 2 mL, by diluting 10-fold a solution obtained by mixing three kinds of vectors at an equal amount, with 10F-DMEM.
as §1
After completion of a substance treatment term, the medium was exchanged with a medium for ES cells, and culturing was continued until the 26th day of culture. […] Regarding the condition under which substance treatment for 4 days to 6 days was carried out, the medium was exchanged at two days interval also during a substance treatment term, and the substance was added at the same concentration every time.
as §3

SMILES: NC(=O)NO [Hydroxyurea, hydroxyurea]
- Number of iPS cell colonies ([1]; 10 μM): 26
- Number of iPS cell colonies ([1]; 100 μM): 13

SMILES: O=C1C=CC(O)C1O (centres unmarked) [DHCP, 4,5-dihydroxy-2-cyclopentene-1-one]
- Number of iPS cell colonies [2]: 23.5

SMILES: CCN(CC)C(=O)c1ccc(Nc2nc(OCC3CCCCC3)c3[nH]cnc3n2)cc1 [NU6140]
- Number of iPS cell colonies ([3]; 0.1 μM): 22.5
- Number of iPS cell colonies ([3]; 1 μM): 28.0

SMILES: Nc1ncn([C@H]2C[C@H](O)[C@@H](CO)O2)c(=O)n1 [Methylation inhibitor, 5-aza-2′-deoxycytidine]
- Number of iPS cell colonies ([4]; retrovirus combination Condition A): 11
- Number of iPS cell colonies ([4]; retrovirus combination Condition B): 25
- Number of iPS cell colonies ([4]; retrovirus combination Condition C): 8

SMILES: CC(C)[C@H](CO)Nc1nc(Nc2cccc(Cl)c2)c2ncn(C(C)C)c2n1 [Purvalanol A]
- Number of iPS cell colonies ([1]; 0.1 μM): 28
- Number of iPS cell colonies ([1]; 0.5 μM): 19
- Number of iPS cell colonies ([1]; 2 μM): 19
- Number of iPS cell colonies ([5]; Condition A: 2 μM Purvalanol A, 2 days): 26.0
- Number of iPS cell colonies ([5]; Condition B: 2 μM Purvalanol A, 4 days): 25.5
- Number of iPS cell colonies ([5]; Condition C: 2 μM Purvalanol A, 6 days): 18.5
